Measurements: ChEMBL document CHEMBL1201862, “PubChem BioAssay data set” (2004)
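96-well plates; 48 h exposure; 5 concentrations. Endpoints by linear interpolation between flanking doses. Not reached: highest tested concentration assigned. Here, GI50 denotes the concentration required for 50% inhibition of growth.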 Active and inactive are the calls of the source. Rule as the data show it: active = GI50 up to about 1.1 µM and inactive = higher.

How the values were obtained:
Assay in all cases: growth of human tumour cells (NCI), 48 h
[1] = tested on: OVCAR-4
[2] = tested on: NCI-H226
[3] = tested on: SK-MEL-2
[4] = tested on: KM12
[5] = tested on: SNB-19
[6] = tested on: COLO 205
[7] = tested on: SW-620
[8] = tested on: K562
[9] = tested on: ACHN
[10] = tested on: HL-60
[11] = tested on: NCI-H460
[12] = tested on: MOLT-4
[13] = tested on: UO-31
[14] = tested on: SN12C
[15] = tested on: HCT-116
[16] = tested on: Malme-3M
[17] = tested on: M14
[18] = tested on: RPMI-8226
[19] = tested on: MCF7
[20] = tested on: SK-MEL-5
[21] = tested on: CAKI-1
[22] = tested on: PC-3
[23] = tested on: MDA-N
[24] = tested on: HT-29
[25] = tested on: IGROV-1
[26] = tested on: UACC-62
[27] = tested on: HOP-92
[28] = tested on: MDA-MB-435
[29] = tested on: NCI/ADR-RES
[30] = tested on: TK-10
[31] = tested on: HCC 2998
[32] = tested on: NCI-H23
[33] = tested on: Hs-578T
[34] = tested on: A549
[35] = tested on: RXF 393
[36] = tested on: UACC-257
[37] = tested on: T47D
[38] = tested on: SF-539
[39] = tested on: SNB-75
[40] = tested on: OVCAR-5
[41] = tested on: SK-MEL-28
[42] = tested on: A498
[43] = tested on: HCT-15
[44] = tested on: 786-0
[45] = tested on: EKVX
[46] = tested on: OVCAR-3
[47] = tested on: LOX IMVI
[48] = tested on: SF-295
[49] = tested on: HOP-62
[50] = tested on: MDA-MB-231
[51] = tested on: SF-268
[52] = tested on: OVCAR-8
[53] = tested on: SR
[54] = tested on: DU-145
[55] = tested on: NCI-H522
[56] = tested on: SK-OV-3
[57] = tested on: CCRF-CEM
[58] = tested on: BT-549
[59] = tested on: U-251

C[C@H]1C[C@H](C)c2ccccc2N(C)/C1=N\c1ccccc1
GI50 [1]: > 100 µM (inactive)
GI50 [2]: 24.5 µM (inactive)
GI50 [3]: 20.5 µM (inactive)
GI50 [4]: 43.3 µM (inactive)
GI50 [5]: 37.8 µM (inactive)
GI50 [6]: 18.4 µM (inactive)
GI50 [7]: 61.5 µM (inactive)
GI50 [8]: 66.7 µM (inactive)
GI50 [9]: 34.4 µM (inactive)
GI50 [10]: 3.93 µM (inactive)
GI50 [11]: 15.8 µM (inactive)
GI50 [12]: 22.5 µM (inactive)
GI50 [13]: 39 µM (inactive)
GI50 [14]: 36.6 µM (inactive)
GI50 [15]: 13.3 µM (inactive)
GI50 [16]: 22.6 µM (inactive)
GI50 [17]: 21.5 µM (inactive)
GI50 [18]: 36.7 µM (inactive)
GI50 [19]: 25.1 µM (inactive)
GI50 [20]: 16.7 µM (inactive)
GI50 [21]: 63.1 µM (inactive)
GI50 [22]: 29.9 µM (inactive)
GI50 [23]: 23.4 µM (inactive)
GI50 [24]: 4.58 µM (inactive)
GI50 [25]: 21.9 µM (inactive)
GI50 [26]: 23.5 µM (inactive)
GI50 [27]: 8.51 µM (inactive)
GI50 [28]: 20.4 µM (inactive)
GI50 [29]: 27.2 µM (inactive)
GI50 [30]: 18.6 µM (inactive)
GI50 [31]: 39.2 µM (inactive)
GI50 [32]: 20.4 µM (inactive)
GI50 [33]: 24.7 µM (inactive)
GI50 [34]: 34.7 µM (inactive)
GI50 [35]: 34.6 µM (inactive)
GI50 [36]: 20.3 µM (inactive)
GI50 [37]: 32.8 µM (inactive)
GI50 [38]: 30.2 µM (inactive)
GI50 [39]: 57.1 µM (inactive)
GI50 [40]: 21.4 µM (inactive)
GI50 [41]: 28.1 µM (inactive)
GI50 [42]: 25.2 µM (inactive)
GI50 [43]: 37.2 µM
GI50 [44]: 22.9 µM (inactive)
GI50 [45]: 25.5 µM (inactive)
GI50 [46]: 28.1 µM (inactive)
GI50 [47]: 13.7 µM (inactive)
GI50 [48]: 26.4 µM (inactive)
GI50 [49]: 19.3 µM (inactive)
GI50 [50]: 14.8 µM (inactive)
GI50 [51]: 56 µM (inactive)
GI50 [52]: 43.2 µM (inactive)
GI50 [53]: 24.4 µM (inactive)
GI50 [54]: 92 µM (inactive)

CC1(C)[N+]([O-])=[N+]([O-])C1(C)Br (stereo not given)
GI50 [1]: > 100 µM (inactive)
GI50 [55]: > 100 µM (inactive)
GI50 [2]: > 100 µM (inactive)
GI50 [3]: > 100 µM (inactive)
GI50 [4]: > 100 µM (inactive)
GI50 [5]: > 100 µM (inactive)
GI50 [6]: > 100 µM (inactive)
GI50 [7]: > 100 µM (inactive)
GI50 [8]: > 100 µM (inactive)
GI50 [9]: > 100 µM (inactive)
GI50 [11]: > 100 µM (inactive)
GI50 [12]: > 100 µM (inactive)
GI50 [13]: > 100 µM (inactive)
GI50 [56]: > 100 µM (inactive)
GI50 [14]: > 100 µM (inactive)
GI50 [15]: > 100 µM (inactive)
GI50 [17]: > 100 µM (inactive)
GI50 [19]: > 100 µM (inactive)
GI50 [20]: > 100 µM (inactive)
GI50 [21]: > 100 µM (inactive)
GI50 [22]: > 100 µM (inactive)
GI50 [24]: > 100 µM (inactive)
GI50 [25]: > 100 µM (inactive)
GI50 [26]: > 100 µM (inactive)
GI50 [28]: > 100 µM (inactive)
GI50 [29]: 65.8 µM (inactive)
GI50 [30]: > 100 µM (inactive)
GI50 [31]: > 100 µM (inactive)
GI50 [32]: > 100 µM (inactive)
GI50 [33]: > 100 µM (inactive)
GI50 [34]: > 100 µM (inactive)
GI50 [35]: 43.8 µM (inactive)
GI50 [36]: > 100 µM (inactive)
GI50 [38]: > 100 µM (inactive)
GI50 [39]: > 100 µM (inactive)
GI50 [40]: > 100 µM (inactive)
GI50 [41]: > 100 µM (inactive)
GI50 [57]: > 100 µM (inactive)
GI50 [58]: > 100 µM (inactive)
GI50 [43]: > 100 µM
GI50 [44]: > 100 µM (inactive)
GI50 [45]: > 100 µM (inactive)
GI50 [46]: > 100 µM (inactive)
GI50 [47]: > 100 µM (inactive)
GI50 [48]: 82.4 µM (inactive)
GI50 [49]: > 100 µM (inactive)
GI50 [50]: > 100 µM (inactive)
GI50 [51]: > 100 µM (inactive)
GI50 [52]: > 100 µM (inactive)
GI50 [53]: 91 µM (inactive)
GI50 [59]: > 100 µM (inactive)
